Assay results reported in patent publication US10070645B2, “N-cycloalkyl-N-{[2-(1-substitutedcycloalkyl)phenyl]methylene}-(thio)carboxamide derivatives” (BAYER CROPSCIENCE AKTIENGESELLSCHAFT, priority 2013, dated 2018).

Assays:
Puccinia recondita = experiment: In vivo preventive test on Puccinia recondita (brown rust on wheat); conditions: for protection: dose of 100 and 10 ppm of active ingredient
Experimental: In Vivo Preventive Test on Puccinia recondita (Brown Rust on Wheat)
(§1) Solvent: 5% by volume of Dimethyl sulfoxide • 10% by volume of Acetone
(§2) Emulsifier: 1 μL of Tween® 80 per mg of active ingredient
The active ingredients are made soluble and homogenized in a mixture of Dimethyl sulfoxide/Acetone//Tween® 80 and then diluted in water to the desired concentration.
The young plants of wheat are treated by spraying the active ingredient prepared as described above. Control plants are treated only with an aqueous solution of Acetone/Dimethyl sulfoxide/Tween® 80. After 24 hours, the plants are contaminated by spraying the leaves with an aqueous suspension of Puccinia recondita spores. The contaminated wheat plants are incubated for 24 hours at 20° C. and at 100% relative humidity and then for 10 days at 20° C. and at 70-80% relative humidity.
(§3) The test is evaluated 11 days after the inoculation. 0% means an efficacy which corresponds to that of the control plants while an efficacy of 100% means that no disease is observed.

Uromyces appendiculatus = experiment: In vivo preventive test on Uromyces appendiculatus (bean rust); conditions: for protection: dose of 100 and 10 ppm of active ingredient
Experimental: In Vivo Preventive Test on Uromyces appendiculatus (Bean Rust)
as §1, §2
The active ingredients are made soluble and homogenized in a mixture of Dimethyl sulfoxide/Acetone/Tween® 80 and then diluted in water to the desired concentration.
The young plants of bean are treated by spraying the active ingredient prepared as described above. Control plants are treated only with an aqueous solution of Acetone/Dimethyl sulfoxide/Tween® 80.
After 24 hours, the plants are contaminated by spraying the leaves with an aqueous suspension of Uromyces appendiculatus spores. The contaminated bean plants are incubated for 24 hours at 20° C. and at 100% relative humidity and then for 10 days at 20° C. and at 70-80% relative humidity.
as §3

[1] = log P by HPLC on a reversed-phase column (C 18), EEC Directive 79/831 Annex V.A8; type: physicochemical; conditions: HPLC, reversed-phase column (C 18), 40° C., 0.1% aqueous formic acid and acetonitrile, linear gradient 10% to 90% acetonitrile
How it was run: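 Reversed-phase C18 HPLC at 40° C, 0.1% aqueous formic acid/acetonitrile gradient from 10% to 90% acetonitrile. log P derived from retention times by linear interpolation between unbranched alkan-2-ones (3–16 carbons) of known log P.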

Compound | Efficacy (Puccinia recondita; Table A1, dose 10 ppm) [%] | Efficacy (Puccinia recondita; Table A1, dose 100 ppm) [%] | protection (Puccinia recondita; listed as I.8) | Efficacy (Uromyces appendiculatus; Table B2, dose 10 ppm) [%] | Efficacy (Uromyces appendiculatus; Table B2, dose 100 ppm) [%] | protection (Uromyces appendiculatus; listed as I.8) | protection (Puccinia recondita) | protection (Uromyces appendiculatus) | logP [1]
Cn1nc(C(F)F)c(C(=O)N(Cc2cc(F)ccc2C2(C)CC2)C2CC2)c1Cl [I.8 from WO-2013/156559, 5-chloro-N-cyclopropyl-3-(difluoromethyl)-N-[5-fluoro-2-(1-methylcyclopropyl)benzyl]-1-methyl-1H-pyrazole-4-carboxamide, reference compound] | 38 | 94 | total to average (less than 40%) protection | 14 | 95 | total to poor (less than 20%) protection | – | – | –
Cn1nc(C(F)F)c(C(=O)N(Cc2cc(F)ccc2C2(C)CC2)C2CC2)c1Cl [I.067] | 98 | 100 | – | 93 | 100 | – | at least 90% | at least 90% | 4.04
